Results taken from US10806785B2, “Immunomodulator compounds and methods of use” (Incyte Corporation, priority 2016, dated 2020).

The compounds below were run against PD-1/PD-L1 (Homo sapiens (Human), UniProt Q9NZQ7) (assay: PD-1/PD-L1 binding assay (HTRF)).
Procedure, shortened: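 Fc-tagged human PD-1 (25-167) and His-tagged PD-L1 (19-238), listed as […] and 10 nM final, preincubated 40 min with inhibitors in PBS pH 7.4, 0.05% Tween-20, 0.1% BSA, 1% DMSO, 25 °C. Eu anti-IgG/APC anti-His added, 60 min, 665/620 nm HTRF ratio; IC50 fitted from percent control activity.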

Sequence of PD-1/PD-L1 (Q9NZQ7 19-238): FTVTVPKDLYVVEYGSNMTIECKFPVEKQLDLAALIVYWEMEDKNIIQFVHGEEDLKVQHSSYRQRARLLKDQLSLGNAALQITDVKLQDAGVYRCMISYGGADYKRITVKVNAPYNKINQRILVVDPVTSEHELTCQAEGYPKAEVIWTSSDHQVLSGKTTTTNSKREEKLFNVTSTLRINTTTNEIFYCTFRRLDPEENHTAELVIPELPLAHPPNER

| IC50 [nM] | SMILES |
| --- | --- |
| ≤ 10 | Cc1c(NC(=O)c2nc3c(n2C)CCN(C2CCOCC2)C3)cccc1-c1cccc(NC(=O)c2nc3c(n2C)CCN(CC[C@H]2CC[C@H](C(=O)O)CC2)C3)c1Cl [Example 122, trans-4-(2-(2-((2-chloro-2′-methyl-3′-(1-methyl-5-(tetrahydro-2H-pyran-4-yl)-4,5,6,7-tetrahydro-1H-imidazo[4,5-c]pyridine-2-carboxamido)-[1,1′-biphenyl]-3-yl)carbamoyl)-1-methyl-1,4,6,7-tetrahydro-5H-imidazo[4,5-c]pyridin-5-yl)ethyl)cyclohexane-1-carboxylic acid] |
| ≤ 10 | Cn1c(C(=O)Nc2cccc(-c3cccc(NC(=O)c4nc5c(n4C)CCN(C4CCC(O)CC4)C5)c3Cl)c2Cl)nc2c1CCN(C[C@H]1CC[C@H](C(=O)O)CC1)C2 (stereo partly drawn) [144 (compound 144-1), trans-4-((2-((2,2′-dichloro-3′-(5-(4-hydroxycyclohexyl)-1-methyl-4,5,6,7-tetrahydro-1H-imidazo[4,5-c]pyridine-2-carboxamido)-[1,1′-biphenyl]-3-yl)carbamoyl)-1-methyl-1,4,6,7-tetrahydro-5H-imidazo[4,5-c]pyridin-5-yl)methyl)cyclohexane-1-carboxylic acid] |
| ≤ 10 | Cc1c(NC(=O)c2nc3c(n2C)CCN(C[C@H]2CC[C@@H](C(=O)O)CC2)C3)cccc1-c1cccc(NC(=O)c2nc3c(n2C)CCNC3)c1Cl [Example 113, cis-4-((2-((2′-chloro-2-methyl-3′-(1-methyl-4,5,6,7-tetrahydro-1H-imidazo[4,5-c]pyridine-2-carboxamido)-[1,1′-biphenyl]-3-yl)carbamoyl)-1-methyl-1,4,6,7-tetrahydro-5H-imidazo[4,5-c]pyridin-5-yl)methyl)cyclohexane-1-carboxylic acid] |
| ≤ 10 | Cc1c(NC(=O)c2nc3c(n2C)CCN(C)C3)cccc1-c1cccc(NC(=O)c2nc3c(n2C)CCN(CC2CCC(C)(C(=O)O)CC2)C3)c1Cl (single isomer, unassigned) [Compound 120-1, 4-((2-((2-chloro-3′-(1,5-dimethyl-4,5,6,7-tetrahydro-1H-imidazo[4,5-c]pyridine-2-carboxamido)-2′-methyl-[1,1′-biphenyl]-3-yl)carbamoyl)-1-methyl-1,4,6,7-tetrahydro-5H-imidazo[4,5-c]pyridin-5-yl)methyl)-1-methylcyclohexane-1-carboxylic acid] |
| ≤ 10 | Cn1c(C(=O)Nc2cccc(-c3cccc(NC(=O)c4nc5c(n4C)CCN(C4CCCC4)C5)c3Cl)c2Cl)nc2c1CCN(CC[C@H]1CC[C@H](C(=O)O)CC1)C2 [Example 90, trans-4-(2-(2-((2,2′-dichloro-3′-(5-cyclopentyl-1-methyl-4,5,6,7-tetrahydro-1H-imidazo[4,5-c]pyridine-2-carboxamido)-[1,1′-biphenyl]-3-yl)carbamoyl)-1-methyl-1,4,6,7-tetrahydro-5H-imidazo[4,5-c]pyridin-5-yl)ethyl)cyclohexane-1-carboxylic acid] |
| ≤ 10 | Cn1c(C(=O)Nc2cccc(-c3cccc(NC(=O)c4nc5c(n4C)CCN(CC4CC4)C5)c3Cl)c2Cl)nc2c1CCN(CC[C@H]1CC[C@H](C(=O)O)CC1)C2 [Example 87, trans-4-(2-(2-((2,2′-dichloro-3′-(5-(cyclopropylmethyl)-1-methyl-4,5,6,7-tetrahydro-1H-imidazo[4,5-c]pyridine-2-carboxamido)-[1,1′-biphenyl]-3-yl)carbamoyl)-1-methyl-1,4,6,7-tetrahydro-5H-imidazo[4,5-c]pyridin-5-yl)ethyl)cyclohexane-1-carboxylic acid] |
| ≤ 10 | Cc1c(NC(=O)c2nc3c(n2C)CCN(CC2(CO)CC2)C3)cccc1-c1cccc(NC(=O)c2nc3c(n2C)CCN(C)C3)c1Cl [Example 31, N-(2′-chloro-3′-(1,5-dimethyl-4,5,6,7-tetrahydro-1H-imidazo[4,5-c]pyridine-2-carboxamido)-2-methylbiphenyl-3-yl)-5-((1-(hydroxymethyl)cyclopropyl)methyl)-1-methyl-4,5,6,7-tetrahydro-1H-imidazo[4,5-c]pyridine-2-carboxamide] |
| ≤ 10 | Cc1c(NC(=O)c2nc3c(n2C)CCN(C2CCC(C)(C(=O)O)CC2)C3)cccc1-c1cccc(NC(=O)c2nc3c(n2C)CCN(C2CCCCC2)C3)c1Cl (stereo not drawn) [Example 107, 4-(2-((2′-chloro-3′-(5-cyclohcxyl-1-methyl-4,5,6,7-tetrahydro-1H-imidazo[4,5-c]pyridine-2-carboxamido)-2-methyl-[1,1′-biphenyl]-3-yl)carbamoyl)-1-methyl-1,4,6,7-tetrahydro-5H-imidazo[4,5-c]pyridin-5-yl)-1-methylcyclohexane-1-carboxylic acid] |
| ≤ 10 | CC(=O)N1CCC(N2CCc3c(nc(C(=O)Nc4cccc(-c5cccc(NC(=O)c6nc7c(n6C)CCN(C)C7)c5Cl)c4C)n3C)C2)CC1 [Example 34, 5-(1-acetylpiperidin-4-yl)-N-(2′-chloro-3′-(1,5-dimethyl-4,5,6,7-tetrahydro-1H-imidazo[4,5-c]pyridine-2-carboxamido)-2-methylbiphenyl-3-yl)-1-methyl-4,5,6,7-tetrahydro-1H-imidazo[4,5-c]pyridine-2-carboxamide] |
| ≤ 10 | Cc1c(-c2nc3c(o2)CN(C(=O)CN[C@H]2C[C@@H](O)C2)C3)cccc1-c1cccc(NC(=O)c2nc3c(n2C)CCN(C)C3)c1Cl [Compound 165, N-(2-chloro-3′-(5-((cis-3-hydroxycyclobutyl)glycyl)-5,6-dihydro-4H-pyrrolo[3,4-d]oxazol-2-yl)-2′-methyl-[1,1′-biphenyl]-3-yl)-1,5-dimethyl-4,5,6,7-tetrahydro-1H-imidazo[4,5-c]pyridine-2-carboxamide] |
| ≤ 10 | Cn1c(C(=O)Nc2cccc(-c3cccc(NC(=O)c4nc5c(n4C)CCN(C[C@H]4CC[C@@H](C(=O)O)CC4)C5)c3Cl)c2Cl)nc2c1CCNC2 [Example 68, cis-4-((2-((2,2′-dichloro-3′-(1-methyl-4,5,6,7-tetrahydro-1H-imidazo[4,5-c]pyridine-2-carboxamido)-[1,1′-biphenyl]-3-yl)carbamoyl)-1-methyl-1,4,6,7-tetrahydro-5H-imidazo[4,5-c]pyridin-5-yl)methyl)cyclohexane-1-carboxylic acid] |
| ≤ 10 | Cn1c(C(=O)Nc2cccc(-c3cccc(-c4nc5c(o4)CN(C(=O)CN4CC[C@@H](O)C4)C5)c3Cl)c2Cl)nc2c1CCN(CCC1CCC(C(=O)O)CC1)C2 (stereo partly drawn) [Compound 171, (R)-4-(2-(2-(2,2′-dichloro-3′-(5-(2-(3-hydroxypyrrolidin-1-yl)acetyl)-5,6-dihydro-4H-pyrrolo[3,4-d]oxazol-2-yl)biphenyl-3-ylcarbamoyl)-1-methyl-6,7-dihydro-1H-imidazo[4,5-c]pyridin-5(4H)-yl)ethyl)cyclohexane-1-carboxylic acid] |
| ≤ 10 | C[C@H](O)CN1CCc2c(nc(C(=O)Nc3cccc(-c4cccc(NC(=O)c5nc6c(n5C)CCN(CC57CCC(C(=O)O)(CC5)C7)C6)c4Cl)c3Cl)n2C)C1 [Example 181, (S)-4-((2-(2,2′-dichloro-3′-(5-(2-hydroxypropyl)-1-methyl-4,5,6,7-tetrahydro-1H-imidazo[4,5-c]pyridine-2-carboxamido)biphenyl-3-ylcarbamoyl)-1-methyl-6,7-dihydro-1H-imidazo[4,5-c]pyridin-5(4H)-yl)methyl)bicyclo[2.2.1]heptane-1-carboxylic acid] |
| ≤ 10 | Cc1c(NC(=O)c2nc3c(n2C)CCN(C[C@H](C)O)C3)cccc1-c1cccc(NC(=O)c2nc3c(n2C)CCN(C2CCC2)C3)c1Cl [Example 44, (S)—N-(2-chloro-3′-(5-(2-hydroxypropyl)-1-methyl-4,5,6,7-tetrahydro-1H-imidazo[4,5-c]pyridine-2-carboxamido)-2′-methylbiphenyl-3-yl)-5-cyclobutyl-1-methyl-4,5,6,7-tetrahydro-1H-imidazo[4,5-c]pyridine-2-carboxamide] |
| ≤ 10 | Cc1c(NC(=O)c2nc3c(n2C)CCN(C2CCC(C)(C(=O)O)CC2)C3)cccc1-c1cccc(NC(=O)c2nc3c(n2C)CCN(C2CCOCC2)C3)c1Cl (stereo not drawn) [Example 108, 4-(2-((2′-chloro-2-methyl-3′-(1-methyl-5-(tetrahydro-2H-pyran-4-yl)-4,5,6,7-tetrahydro-1H-imidazo[4,5-c]pyridine-2-carboxamido)-[1,1′-biphenyl]-3-yl)carbamoyl)-1-methyl-1,4,6,7-tetrahydro-5H-imidazo[4,5-c]pyridin-5-yl)-1-methylcyclohexane-1-carboxylic acid] |
| ≤ 10 | Cn1c(C(=O)Nc2cccc(-c3cccc(NC(=O)c4nc5c(n4C)CCN(C[C@H]4CC[C@H](C(=O)O)CC4)C5)c3Cl)c2Cl)nc2c1CCN(CCO)C2 [Example 65, trans-4-((2-((2,2′-dichloro-3′-(5-(2-hydroxyethyl)-1-methyl-4,5,6,7-tetrahydro-1H-imidazo[4,5-c]pyridine-2-carboxamido)-[1,1′-biphenyl]-3-yl)carbamoyl)-1-methyl-1,4,6,7-tetrahydro-5H-imidazo[4,5-c]pyridin-5-yl)methyl)cyclohexane-1-carboxylic acid] |
| ≤ 10 | C[C@H](O)CN1CCc2c(nc(C(=O)Nc3cccc(-c4cccc(NC(=O)c5nc6c(n5C)CCN(C[C@H]5CC[C@H](C(=O)O)CC5)C6)c4Cl)c3Cl)n2C)C1 [Example 66, trans-4-((2-((2,2′-dichloro-3′-(5-((S)-2-hydroxypropyl)-1-methyl-4,5,6,7-tetrahydro-1H-imidazo[4,5-c]pyridine-2-carboxamido)-[1,1′-biphenyl]-3-yl)carbamoyl)-1-methyl-1,4,6,7-tetrahydro-5H-imidazo[4,5-c]pyridin-5-yl)methyl)cyclohexane-1-carboxylic acid] |
| ≤ 10 | C[C@@H](O)CN1CCc2c(nc(C(=O)Nc3cccc(-c4cccc(NC(=O)c5nc6c(n5C)CCN(C[C@H]5CC[C@H](C(=O)O)CC5)C6)c4Cl)c3Cl)n2C)C1 [Example 67, trans-4-((2-((2,2′-dichloro-3′-(5-((R)-2-hydroxypropyl)-1-methyl-4,5,6,7-tetrahydro-1H-imidazo[4,5-c]pyridine-2-carboxamido)-[1,1′-biphenyl]-3-yl)carbamoyl)-1-methyl-1,4,6,7-tetrahydro-5H-imidazo[4,5-c]pyridin-5-yl)methyl)cyclohexane-1-carboxylic acid] |
